Results as given in PubChem BioAssay (NCI).
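Test compounds were applied to cells in 96-well plates for 48 hours at 5 doses. TGI marks complete inhibition of growth.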 Where a SMILES comes first, the peptide text is derived from it. [ ]: non-standard residue; d: D form. The star is where a group is joined. ξ: configuration not given here. NMeF = CN[C@@H](Cc1ccccc1)C(=O)O; ξNMeV = CNC(C(=O)O)C(C)C; Boc = CC(C)(C)OC(=O)*; OBn = c1ccc(CO*)cc1

Columns and labels:
Assay in all cases: NCI-60 cell line screen, 48 h
[1] = test system: IGROV1 ovarian
[2] = test system: MDA-N
[3] = test system: HCT-116 colon
[4] = test system: SNB-75 CNS
[5] = test system: UACC-62 melanoma
[6] = test system: NCI/ADR-RES ovarian
[7] = test system: K-562 leukemia
[8] = test system: RXF 393 renal
[9] = test system: MOLT-4 leukemia
[10] = test system: PC-3 prostate
[11] = test system: COLO 205 colon
[12] = test system: SF-268 CNS
[13] = test system: ACHN renal
[14] = test system: SW-620 colon
[15] = test system: HCT-15 colon
[16] = test system: SF-539 CNS
[17] = test system: T-47D breast
[18] = test system: HS 578T breast

Measured: TGI

CCN1CC2=C(NC(=S)NC2c2cc(OC)c(OC)c(OC)c2)/C(=C/c2cc(OC)c(OC)c(OC)c2)C1 (stereo not given)
20.8 µM: [4]
37.7 µM: [12]
52.9 µM: [11]
66.3 µM: [7]
not listed: [16] | [17] | [18]
> 100 µM: all other assays above

CCCCNC(=O)Nc1c(C(N)=O)c2n(c1C(=O)OCC)CCCCC2
not listed: [2]
> 100 µM: all other assays above

NCC(NC(=O)OCc1ccccc1)C(=O)O (stereo not given)
not listed: [2] | [6] | [8] | [10] | [17] | [18]
> 50 µM: all other assays above

CCOC(=O)c1cc(C2CCN(Cc3ccccc3)C2=O)c(C(=O)C(=[N+]=[N-])C(C)=O)[nH]1 (stereo not given)
not listed: [2] | [13]
> 100 µM: all other assays above

C/C(=N/NC(=O)C(N)=O)C(CC(C(=O)Nc1ccccc1C)/C(C)=N\NC(=O)C(N)=O)C(=O)Nc1ccccc1C (stereo not given)
> 100 µM: [16] | [1] | [4] | [7] | [8] | [9] | [11] | [12] | [13] | [14]

COc1ccc(C(C2C(=O)N(C)C(=O)N(C)C2=O)C(F)(F)C(=O)N(C)C)cc1 (stereo not given)
not listed: [1] | [2] | [7] | [9] | [18]
> 100 µM: all other assays above

CC(C)C(C(=O)N1CCC[C@@H]1C(=O)OCc1ccccc1)N(C)C(=O)C(C(C)C)N(C)C(=O)[C@H](Cc1ccccc1)N(C)C(=O)[C@H](NC(=O)OC(C)(C)C)C(C)C (stereo not given in full) (Boc-[dV][NMeF][ξNMeV][ξNMeV][dP]-OBn)
not listed: [2] | [6] | [10] | [17] | [18]
> 100 µM: all other assays above

COc1ccc2c(c1)nc1n2C(c2c(F)cccc2Cl)SC1 (stereo not given)
> 82.9 µM: [13]
> 100 µM: [1] | [5] | [7]
> 54.9 µM: [11]
90.6 µM: [12]
> 41.4 µM: [9]
> 51.6 µM: [10]
> 37.2 µM: [15]
16.1 µM: [16]
> 60.2 µM: [14]
7.85 µM: [4]
> 52.5 µM: [17]
4.81 µM: [6]
> 37 µM: [3]
6.4 µM: [18]
> 22 µM: [8]

O=c1cc(CC(O)(C(F)(F)Cl)C(F)(F)Cl)[nH]n1-c1ccccc1
not listed: [2] | [10]
> 100 µM: all other assays above

COC(=O)N/N=C/c1oc(-c2ccccc2)c(-c2ccccc2)c1[N+](=O)[O-]
not listed: [2] | [6] | [10] | [17] | [18]
> 100 µM: all other assays above

CC(C)C(=O)/C=C/c1ccc(Cl)cc1
35.5 µM: [8]
33.4 µM: [4]
59.9 µM: [11]
11.5 µM: [3]
15.6 µM: [7]
46.3 µM: [1]
36.4 µM: [5]
22.6 µM: [16]
16.3 µM: [14]
55.9 µM: [9]
28.5 µM: [13]
67.5 µM: [12]

CN(C)CC(CO)(CN(C)C)CN(C)C
not listed: [17] | [18]
> 100 µM: all other assays above

Oc1c(-c2ccccc2)sc2ccccc12
52.1 µM: [4]
88.6 µM: [9]
71 µM: [3]
54.4 µM: [17]
69.1 µM: [10]
67.5 µM: [7]
28.2 µM: [11]
45.1 µM: [8]
not listed: [2]
> 100 µM: all other assays above

CSc1ccc2c(cc1=O)C(NC(=O)c1ccc(OC(C)=O)cc1)CCc1cc(O)c(O)c(O)c1-2 (stereo not given)
31.1 µM: [3]
55.6 µM: [4]
28.9 µM: [9]
34.9 µM: [15]
40.1 µM: [16]
30.8 µM: [11]
7.53 µM: [7]
> 100 µM: [12] | [13]
36.3 µM: [5]
29.5 µM: [14]

CCOc1ccc(N=Nc2ccc3oc(=O)c(C(=O)Nc4ccc(OC)cc4)cc3c2)cc1
93.7 µM: [4]
44.4 µM: [9]
93.1 µM: [5]
26.2 µM: [3]
51 µM: [16]
78.4 µM: [12]
> 100 µM: [1] | [7] | [11] | [14] | [15]

COC(=O)C1CCC(Nc2cccc(C(F)(F)F)c2)=N1 (stereo not given)
not listed: [2] | [6] | [8] | [10] | [16] | [17] | [18]
> 100 µM: all other assays above

CC(=O)OC1CC2(c3ccccc3)C(=O)c3ccccc3N2O1 (stereo not given)
not listed: [2] | [6] | [10] | [17] | [18]
> 100 µM: all other assays above

COc1ccc(C2ON(c3ccccn3)CC=C2C)cc1 (stereo not given)
not listed: [2] | [3] | [6] | [10] | [17] | [18]
> 100 µM: all other assays above

CC(C)OP(=O)(OC(C)C)/C(=N/N)NNc1ccc([N+](=O)[O-])cc1
not listed: [1] | [2] | [6] | [8] | [10] | [17] | [18]
> 100 µM: all other assays above

COc1cc(C(C)c2cc3c(cc2OCCCCOc2cc4c(cc2C(C)c2cc(OC)c(OC)c(OC)c2)OCO4)OCO3)cc(OC)c1OC (stereo not given)
73.3 µM: [8]
69.7 µM: [4]
55.4 µM: [16]
96 µM: [14]
not listed: [2] | [6] | [10] | [17] | [18]
> 100 µM: all other assays above

O=c1c2ccccc2nc(-c2ccccc2)n1NC(=S)Nc1ccc(Cl)cc1[N+](=O)[O-]
not listed: [2] | [6] | [10] | [17] | [18]
> 100 µM: all other assays above

CC1(C)C2CCC3(OCCO3)C1C1OC12 (stereo not given)
not listed: [1] | [2] | [5] | [6] | [10] | [17] | [18]
> 100 µM: all other assays above

NC(=S)N1N=C2c3ccccc3CC[C@H]2[C@@H]1c1cccs1
35.5 µM: [7]
> 100 µM: [16] | [1] | [3] | [5] | [12] | [13] | [14] | [15]
94.5 µM: [9]
40 µM: [11]
83 µM: [8]

CC12CC[C@H](O)C(C)(C)[C@H]1CC[C@](C)(O)C2COc1ccc2ccc(=O)oc2c1 (stereo not given in full)
not listed: [2] | [6] | [10] | [17] | [18]
> 100 µM: all other assays above

O=C1c2nn(-c3ccccc3)nc2C(c2ccccc2)N1c1ccccc1 (stereo not given)
81.2 µM: [4]
not listed: [2] | [6] | [8] | [10] | [17] | [18]
> 100 µM: all other assays above
